In one assay the test system is A2780. Nature of the assay: Cytotoxicity against human A2780 cells. The assay is classed as functional.
The species entered for another assay is Rattus norvegicus. Kind of assay: Stabilization of rat DNA polymerase binding to DNA by gel mobility assay.

Results on five compounds are retold here after ChEMBL document CHEMBL1157290, “Bioactive isomalabaricane triterpenoids from Rhabdastrella globostellata that stabilize the binding of DNA polymerase beta to DNA” (2006).

Calls of active or inactive are those of the source. The calls are words filed in the database; no cut-off is given here. *1 amine or outer side, *2 acyl side, *3 side chain or, on linkers, in order; H or OH if unused. Where a SMILES comes first, the peptide text is derived from it. Bridges are numbered along the chain shown (N, C = ends). Roman numbers before positions name the chains, in order. [ ]: non-standard residue; d: D form. Actinocin(1to9) = Cc1c2oc3c(C)ccc(C(=O)[*:2])c3nc-2c(C(=O)[*:1])c(N)c1=O; NMeV = CN[C@H](C(=O)O)C(C)C; Sar = CNCC(=O)O

Turning to `CC(=O)OC[C@]1(C)[C@@H]2CC[C@]3(C)/C(=C(C)/C=C/C=C(\C)[C@H](CC=C(C)C)OC(C)=O)C(=O)C[C@H]3[C@@]2(C)CC[C@H]1OC(C)=O`, the values for the Activity with A2780 and in the assay filed under Rattus norvegicus were 27 µM and 23%, respectively. Consider `Cc1c2oc3c(C)ccc(C(=O)N[C@@H]4C(=O)N[C@H](C(C)C)C(=O)N5CCC[C@H]5C(=O)N(C)CC(=O)N(C)[C@@H](C(C)C)C(=O)O[C@@H]4C)c3nc-2c(C(=O)N[C@@H]2C(=O)N[C@H](C(C)C)C(=O)N3CCC[C@H]3C(=O)N(C)CC(=O)N(C)[C@@H](C(C)C)C(=O)O[C@@H]2C)c(N)c1=O` [DACTINOMYCIN] (I: T[dV]P[Sar][NMeV] / II: T[dV]P[Sar][NMeV]; ester I:1-I:C, II:1-II:C; linker I:N-II:N via Actinocin(1to9)), for which, in the assay with A2780, the Activity worked out at 0.0017 µM.

Consider `CC(C)=C/C=C/C(C)=C/C=C/C(C)=C1\C(=O)C[C@H]2[C@@]3(C)CC[C@@H](O)[C@](C)(CO)[C@@H]3CC[C@]12C` [STELLETTIN J], for which the Activity with A2780 is 1.2 µM; in the assay filed under Rattus norvegicus, 8%. `CC(C)=C/C=C/C(C)=C/C=C/C(C)=C1\C(=O)C[C@H]2[C@@]3(C)CC[C@@H](O)[C@](C)(C(=O)O)[C@@H]3CC[C@]12C` [STELLETTIN K] had an Activity in the assay on A2780 of 0.28 µM. For the same compound, in the assay listed under Rattus norvegicus, the outcome was inactive. The corresponding values for `CC(=O)O[C@@H]1CC[C@@]2(C)[C@@H](CC[C@]3(C)/C(=C(C)/C=C/C=C(\C)C(CC=C(C)C)O[C@@H]4OC[C@@H](O)[C@@H](O)[C@H]4O)C(=O)C[C@@H]23)C1(C)C` (some centres undefined) [STELLIFERIN RIBOSIDE] are 7.3 µM and 29%.
